The results in this text go back to US20250025443A1, “COMPOUNDS AND METHODS FOR TREATING CORONA VIRUSES” (CLEAR CREEK BIO, INC., priority 2021, published 2025).

This experiment deals with SARS-CoV-2 Papain-Like Protease (PLpro) (Severe acute respiratory syndrome coronavirus 2 (2019-nCoV) (SARS-CoV-2), UniProt P0DTD1). As to the kind of experiment: biochemical. The following applies: read-out: PLpro IC50.
Setting [1] is: SARS-CoV-2 PLpro enzymatic fluorescence assay.
[2] abbreviates: PLpro enzymatic fluorescence assay, class symbols.

pIC50: −log10 of the molar value. Like-named read-outs stand apart in the source and are kept apart here.

By pIC50 is commonly meant −log10 of the IC50, conventionally taken in molar units. As for `CNCCOc1ccc(C)c(C(=O)NC2(c3cc(-c4cccs4)cc4ccccc34)CC2)c1` [Compound 486, 2-Methyl-5-(2-(methylamino)ethoxy)-N-(1-(3-(thiophen-2-yl)naphthalen-1-yl)cyclopropyl)benzamide], the pIC50 under setting [1] was greater than 7.00.
Still for that read-out and setting: under `Cc1cc(N)c(OCC2CCN2C)cc1C(=O)NC1(c2cccc3ccccc23)CC1` (centres unmarked) [Compound 487, 4-Amino-2-methyl-5-((1-methylazetidin-2-yl)methoxy)-N-(1-(naphthalen-1-yl)cyclopropyl)benzamide] stands greater than 7.00.
As for `Cc1ccc(OCC2CCN2C)cc1C(=O)NC1(c2cc(O)cc3ncccc23)CC1` (centres unmarked) [Compound 488, N-(1-(7-Hydroxyquinolin-5-yl)cyclopropyl)-2-methyl-5-((1-methylazetidin-2-yl)methoxy)benzamide], under setting [2], the pIC50 was greater than 7.00.
As to `COc1cc(C2(NC(=O)c3cc(OC[C@@H]4C[C@@H](F)CN4C)ccc3C)CC2)c2ccccc2c1` [Compound 489, 5-(((2S,4R)-4-Fluoro-1-methylpyrrolidin-2-yl)methoxy)-N-(1-(3-methoxynaphthalen-1-yl)cyclopropyl)-2-methylbenzamide], the pIC50 under setting [1] is greater than 7.00.
On the same count and under the same terms, under `COc1cc(C2(NC(=O)c3cc(OC[C@@H]4C[C@@H](F)CN4)ccc3C)CC2)c2ccccc2c1` [Compound 490, 5-(((2S,4R)-4-Fluoropyrrolidin-2-yl)methoxy)-N-(1-(3-methoxynaphthalen-1-yl)cyclopropyl)-2-methylbenzamide] stands greater than 7.00; under `Cc1ccc(OC2CN(Cc3ccccc3)C(C)(C)C2)cc1C(=O)NC1(c2cccc3ccccc23)CC1` (centres unmarked) [Compound 491, 5-((1-benzyl-5,5-dimethylpyrrolidin-3-yl)oxy)-2-methyl-N-(1-(naphthalen-1-yl)cyclopropyl)benzamide], 6.00 to 7.00.
As for `Cc1ccc(OCC2CC(C)(C)N2Cc2ccccc2)cc1C(=O)NC1(c2cccc3ccccc23)CC1` (centres unmarked) [Compound 492, 5-((1-Benzyl-4,4-dimethylazetidin-2-yl)methoxy)-2-methyl-N-(1-(naphthalen-1-yl)cyclopropyl)benzamide], under setting [1], the negative logarithm of the IC50 (pIC50) is 6.00 to 7.00.
Take `Cc1ccc(-c2cc(C3(NC(=O)c4cc(OCC5CCN5C)ccc4C)CC3)c3ccccc3c2)s1` (centres unmarked) [Compound 493, 2-Methyl-5-((1-methylazetidin-2-yl)methoxy)-N-(1-(3-(5-methylthiophen-2-yl)naphthalen-1-yl)cyclopropyl)benzamide]: the negative-log IC50 (pIC50) under setting [2] is greater than 7.00.
For the molecule `Cc1ccc(OCC2CCN2C)cc1C(=O)NC1(c2cc(N(C)C)cc3ccccc23)CC1` (centres unmarked) [Compound 495, N-(1-(3-(Dimethylamino)naphthalen-1-yl)cyclopropyl)-2-methyl-5-((1-methylazetidin-2-yl)methoxy)benzamide], the pIC50 under setting [1] was greater than 7.00.
The same measure, in the same setting: in the case of `Cc1ccc(OCC2CCN2C)cc1C(=O)NC1(c2cc(N)cc3ccccc23)CC1` (centres unmarked) [Compound 496, N-(1-(3-Aminonaphthalen-1-yl)cyclopropyl)-2-methyl-5-((1-methylazetidin-2-yl)methoxy)benzamide] it was greater than 7.00; in that of `Cc1cc(C2(NC(=O)c3cc(OCC(C)N)ccc3C)CC2)c2cccnc2c1` (centres unmarked) [Compound 497, 5-(2-Aminopropoxy)-2-methyl-N-(1-(7-methylquinolin-5-yl)cyclopropyl)benzamide], greater than 7.00.
Take `Cc1ccc(OCC(C)N)cc1C(=O)NC1(c2cccc3ncccc23)CC1` (centres unmarked) [Compound 498, 5-(2-Aminopropoxy)-2-methyl-N-(1-(quinolin-5-yl)cyclopropyl)benzamide]: the pIC50 under setting [2] is greater than 7.00.
`CNCCOc1ccc(C)c(C(=O)NC2(c3cccc4ccccc34)CN(C)C2)c1` [Compound 499, 2-Methyl-N-(1-methyl-3-(naphthalen-1-yl)azetidin-3-yl)-5-(2-(methylamino)ethoxy)benzamide]: the pIC50 under setting [1] is less than 5.30.
For `CC(=O)Nc1cc(C2(NC(=O)c3cc(OCC4CCN4C)ccc3C)CC2)c2ccccc2c1` (centres unmarked) [Compound 500, N-(1-(3-Acetamidonaphthalen-1-yl)cyclopropyl)-2-methyl-5-((1-methylazetidin-2-yl)methoxy)benzamide], under setting [2], the pIC50 is greater than 7.00.
In the case of `Cc1cc(C2(NC(=O)c3cc(OCC4CCN4C)ccc3C)CC2)c2ccccc2c1` (centres unmarked) [Compound 501, 2-Methyl-5-((1-methylazetidin-2-yl)methoxy)-N-(1-(3-methylnaphthalen-1-yl)cyclopropyl)benzamide], the pIC50 under setting [1] is greater than 7.00.
As to `Cc1ccc(OCC(C)N)cc1C(=O)NC1(c2cc(-c3ccc(Cl)s3)cc3ccccc23)CC1` (centres unmarked) [Compound 502, 5-(2-Aminopropoxy)-N-(1-(3-(5-chlorothiophen-2-yl)naphthalen-1-yl)cyclopropyl)-2-methylbenzamide], under setting [2], the pIC50 was greater than 7.00.
Still for that read-out and setting: under `C=CCc1cc(C2(NC(=O)c3cc(OCC4CCN4C)ccc3C)CC2)c2ccccc2c1` (centres unmarked) [Compound 503, N-(1-(3-Allylnaphthalen-1-yl)cyclopropyl)-2-methyl-5-((1-methylazetidin-2-yl)methoxy)benzamide] stands greater than 7.00; under `CCCc1cc(C2(NC(=O)c3cc(OCC4CCN4C)ccc3C)CC2)c2ccccc2c1` (centres unmarked) [Compound 504, 2-Methyl-5-((1-methylazetidin-2-yl)methoxy)-N-(1-(3-propylnaphthalen-1-yl)cyclopropyl)benzamide], greater than 7.00.
As for `Cc1ccc(N2CCN(CCO)CC2)cc1C(=O)NC1(c2cccc3ccccc23)CC1` [Compound 505, 5-(4-(2-Hydroxyethyl)piperazin-1-yl)-2-methyl-N-(1-(naphthalen-1-yl)cyclopropyl)benzamide], the negative-log IC50 (pIC50) under setting [1] is greater than 7.00.
For `Cc1ccc(N2C[C@@H](C)N[C@@H](C)C2)cc1C(=O)NC1(c2cccc3ccccc23)CC1` [Compound 506, 5-((3S,5R)-3,5-Dimethylpiperazin-1-yl)-2-methyl-N-(1-(naphthalen-1-yl)cyclopropyl)benzamide], the pIC50 under setting [2] was greater than 7.00.
On the same count and under the same terms, in the case of `Cc1ccc(OCC2CCN2C)cc1C(=O)NC1(c2c3ccccc3cc3ccccc23)CC1` (centres unmarked) [Compound 507, N-(1-(Anthracen-9-yl)cyclopropyl)-2-methyl-5-((1-methylazetidin-2-yl)methoxy)benzamide] it was 6.00 to 7.00.
`C=C(C)c1cc(C2(NC(=O)c3cc(OCC4CCN4C)ccc3C)CC2)c2ccccc2c1` (centres unmarked) [Compound 508, 2-Methyl-5-((1-methylazetidin-2-yl)methoxy)-N-(1-(3-(prop-1-en-2-yl)naphthalen-1-yl)cyclopropyl)benzamide]: the negative logarithm of the IC50 (pIC50) under setting [1] is greater than 7.00.
The same measure, in the same setting: in the case of `Cc1ccc(OCC2CCN2C)cc1C(=O)NC1(c2cccc3cnc(O)cc23)CC1` (centres unmarked) [Compound 509, N-(1-(3-Hydroxyisoquinolin-5-yl)cyclopropyl)-2-methyl-5-((1-methylazetidin-2-yl)methoxy)benzamide] it was 6.00 to 7.00.
On to `COc1cc(C2(NC(=O)c3cc(OC[C@H]4C[C@H](F)CN4)ccc3C)CC2)c2ccccc2c1` [Compound 510, 5-(((2R,4S)-4-Fluoropyrrolidin-2-yl)methoxy)-N-(1-(3-methoxynaphthalen-1-yl)cyclopropyl)-2-methylbenzamide], for which the pIC50 under setting [2] was greater than 7.00.
Turning to `COc1cc(C2(NC(=O)c3cc(OC[C@@H]4CCN4)ccc3C)CC2)c2cccnc2c1` [Compound 511, (S)-5-(Azetidin-2-ylmethoxy)-N-(1-(7-methoxyquinolin-5-yl)cyclopropyl)-2-methylbenzamide], the negative logarithm of the IC50 (pIC50) under setting [1] is greater than 7.00.
Consider `COc1cc(C2(NCc3cc(OCCN)ccc3C)CC2)c2cccnc2c1` [Compound 513], for which, under setting [2], the pIC50 is greater than 7.00.
On the same count and under the same terms, under `Cc1ccc(OCC2CCN2C)cc1C(=O)NC1(c2cc(-c3ccc(Cl)s3)cc3ccccc23)CC1` (centres unmarked) [Compound 514, N-(1-(3-(5-Chlorothiophen-2-yl)naphthalen-1-yl)cyclopropyl)-2-methyl-5-((1-methylazetidin-2-yl)methoxy)benzamide] stands greater than 7.00.
`CCc1cc(C2(NC(=O)c3cc(OCC4CCN4C)ccc3C)CC2)c2ccccc2c1` (centres unmarked) [Compound 516, N-(1-(3-Ethylnaphthalen-1-yl)cyclopropyl)-2-methyl-5-((1-methylazetidin-2-yl)methoxy)benzamide]: under setting [2], the pIC50 was greater than 7.00.
On the same count and under the same terms, in the case of `C=Cc1cc(C2(NC(=O)c3cc(OCC4CCN4C)ccc3C)CC2)c2ccccc2c1` (centres unmarked) [Compound 517, 2-Methyl-5-((1-methylazetidin-2-yl)methoxy)-N-(1-(3-vinylnaphthalen-1-yl)cyclopropyl)benzamide] it was greater than 7.00.
On the same count and under the same terms, in the case of `Cc1ccc(OCC2CCN2C)cc1C(=O)NC1(c2cc(-c3ccc(F)cc3)cc3ccccc23)CC1` (centres unmarked) [Compound 518, N-(1-(3-(4-Fluorophenyl)naphthalen-1-yl)cyclopropyl)-2-methyl-5-((1-methylazetidin-2-yl)methoxy)benzamide] it was greater than 7.00.
Take `Cc1ccc(OCC2CCN2C)cc1C(=O)NC1(c2cc(C(N)=O)cc3ccccc23)CC1` (centres unmarked) [Compound 520, 4-(1-(2-Methyl-5-((1-methylazetidin-2-yl)methoxy)benzamido)cyclopropyl)-2-naphthamide]: the pIC50 under setting [1] was greater than 7.00.
Same read-out and setting: in the case of `Cc1ccc(OCC2CCN2C)cc1C(=O)NC1(c2cc(C(C)C)cc3ccccc23)CC1` (centres unmarked) [Compound 521, N-(1-(3-Isopropylnaphthalen-1-yl)cyclopropyl)-2-methyl-5-((1-methylazetidin-2-yl)methoxy)benzamide] it was greater than 7.00; in that of `CC(c1cccc2cnccc12)N1CCC(C(=O)NCc2cccc(F)c2)CC1` (centres unmarked) [Compound 522, N-(3-Fluorobenzyl)-1-(1-(isoquinolin-5-yl)ethyl)piperidine-4-carboxamide], less than 5.30; in that of `COc1cc(C(C)N2CCC(C(=O)NCc3cccc(F)c3)CC2)c2ccccc2c1` (centres unmarked) [Compound 524, N-(3-Fluorobenzyl)-1-(1-(3-methoxynaphthalen-1-yl)ethyl)piperidine-4-carboxamide], 6.00 to 7.00.
Same read-out and setting: under `CNCCOc1ccc(C)c(C(=O)NC2(c3cc(OC)cc4ncccc34)CC2)c1` [Compound 526, N-(1-(7-Methoxyquinolin-5-yl)cyclopropyl)-2-methyl-5-(2-(methylamino)ethoxy)benzamide] stands greater than 7.00.
